The source of these data is paper PMC11003477, “Fluorine and chlorine substituted adamantyl-urea as molecular tools for inhibition of human soluble epoxide hydrolase with picomolar efficacy” (Journal of Enzyme Inhibition and Medicinal Chemistry, 2023).

Converted amounts (≈) assume the structure as drawn. Where two headings read alike, the source gives them in different places. Bounds are passed on as bounds.

The target in data set [1] is T1, human sEH (Homo sapiens, UniProt P34913).
T1 construct: made in house; host or cells: insect cells with baculovirus (given both as High Five cells and as Spodoptera frugiperda 21)
T1 sequence (P34913 1-555): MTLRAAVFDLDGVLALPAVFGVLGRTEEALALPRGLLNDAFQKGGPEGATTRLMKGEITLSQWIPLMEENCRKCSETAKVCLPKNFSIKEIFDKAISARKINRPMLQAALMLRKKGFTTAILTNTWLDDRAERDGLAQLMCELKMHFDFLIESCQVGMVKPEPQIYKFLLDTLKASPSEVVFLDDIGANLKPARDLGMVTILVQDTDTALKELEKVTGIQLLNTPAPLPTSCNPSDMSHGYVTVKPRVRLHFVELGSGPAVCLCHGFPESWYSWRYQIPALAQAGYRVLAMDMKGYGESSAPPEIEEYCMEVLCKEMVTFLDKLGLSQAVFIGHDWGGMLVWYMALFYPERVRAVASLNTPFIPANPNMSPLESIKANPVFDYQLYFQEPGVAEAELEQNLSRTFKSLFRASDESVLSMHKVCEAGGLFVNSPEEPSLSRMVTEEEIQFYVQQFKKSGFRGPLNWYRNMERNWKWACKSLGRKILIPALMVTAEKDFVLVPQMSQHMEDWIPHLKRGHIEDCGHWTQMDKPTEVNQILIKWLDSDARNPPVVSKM
The experiment in a line: Human sEH inhibition, kinetic fluorescent assay (CMNPC assay). It counts as biochemical. Here is the method: Recombinant human and recombinant rat sEH were produced in insect High Five cells using recombinant baculovirus expression vectors, and purified by affinity chromatography as reported previously.[31]^,[32] […] Human sEH was obtained by expressing cDNA in the baculovirus system in the cell line Spodoptera frugiperda 21.
Determination of inhibitory potency (IC50) by fluorescent assay (CMNPC assay)[27]
The enzyme (ca. 1 nM human sEH) was incubated at 30 °C with inhibitors ([I]final = 0.4–100,000 nM) for 5 min in 100 mM sodium phosphate buffer (200 μL, pH 7.4) containing 0.1 mg mL^−1 of BSA and 1% of DMSO. The substrate (cyano(2-methoxynaphthalen-6-yl)methyl trans-(3-phenyloxyran-2-yl)methylcarbonate, CMNPC) was then added ([S]final = 5 μM). The activity was assessed by measuring the appearance of the fluorescent 6-methoxynaphthaldehyde product ([…]) at 30 °C during a 10 min incubation (Spectramax M2; Molecular Device, Inc., Sunnyvale, CA).

Data set [2] is described as follows: Aqueous solubility by turbidimetric assay. Particulars: aqueous buffer, kinetic from dmso stock, sodium phosphate buffer (pH 7.4, 0.1 M) containing 1% of DMSO, read-out: Saq (aqueous solubility). In kind it is physicochemical. Here is the method:
Solubilities were measured in sodium phosphate buffer (pH 7.4, 0.1 M) containing 1% of DMSO by turbidimetric assay.

Data set [3] addresses T1, human sEH. Particulars: cited from earlier work.
The mark [4] stands for this setting: CMNPC fluorescent assay, means of three independent experiments, measurement limit 0.04 nM, read-out: IC50.

As for `O=C(NCCCCCCCCNC(=O)NCC12CC3CC(CC(Cl)(C3)C1)C2)NCC12CC3CC(CC(Cl)(C3)C1)C2` [Compound 12g], the melting point – broadly, the temperature of the solid-liquid transition – was 187 to 188 °C. The IC50 – broadly, the midpoint of a concentration-inhibition curve – on human sEH [1] (setting [4]) came out at 0.1 nM. Also, the solubility (commonly the concentration that dissolves in the medium under given conditions) in data set [2] was determined as 60 ± 10 µM (≈ 35.7 µg/mL).

Take `O=C(NCCCCCCNC(=O)NCC12CC3CC(CC(C3)C1)C2)NCC12CC3CC(CC(C3)C1)C2` [DAMH, 1,1'-(hexane-1,6-diyl)bis(3-(adamantan-1-ylmethyl)urea), reference compound]: the IC50 on human sEH [1] (setting [4]) is 0.4 nM; at human sEH [3] (earlier version of the assay with a measurement limit of 0.4 nM), 1 nM. The solubility in data set [2] amounted to 65 ± 5 µM (≈ 32.4 µg/mL).

In the case of `O=C(NCCCCNC(=O)NCC12CC3CC(CC(F)(C3)C1)C2)NCC12CC3CC(CC(F)(C3)C1)C2` [Compound 11c], the melting point lay in the range of 142 to 143 °C. At human sEH [1] (setting [4]), the IC50 was 0.5 nM. For the same compound, in data set [2], the solubility was found to be 180 ± 20 µM (≈ 91.2 µg/mL).

As to `O=C(NCCCCCNC(=O)NCC12CC3CC(CC(F)(C3)C1)C2)NCC12CC3CC(CC(F)(C3)C1)C2` [Compound 11d], the melting point was in the range of 75 to 76 °C. In addition, the IC50 at human sEH [1] (setting [4]) is 0.4 nM. The solubility in data set [2] came out at 140 ± 20 µM (≈ 72.9 µg/mL).

`O=C(NCCCCCCNC(=O)NCC12CC3CC(CC(F)(C3)C1)C2)NCC12CC3CC(CC(F)(C3)C1)C2` [Compound 11e] yielded a melting point of 82 to 83 °C. Besides, on human sEH [1] (setting [4]), the IC50 was under 0.04 nM. Besides, the solubility in data set [2] was 150 ± 20 µM (≈ 80.2 µg/mL).

`O=C(NCCCNC(=O)NCC12CC3CC(CC(F)(C3)C1)C2)NCC12CC3CC(CC(F)(C3)C1)C2` [Compound 11b] yielded a melting point of 87 to 88 °C. Also, the IC50 at human sEH [1] (setting [4]) came to 1.8 nM. Also, the solubility in data set [2] turned out to be 150 ± 20 µM (≈ 73.9 µg/mL).

`O=C(NCCCCCNC(=O)NCC12CC3CC(CC(Cl)(C3)C1)C2)NCC12CC3CC(CC(Cl)(C3)C1)C2` [Compound 12d] registered a melting point of 157 to 158 °C. At human sEH [1] (setting [4]), the IC50 is under 0.04 nM. Moreover, the IC50 at human sEH [1] (value below the accuracy limit of the assay (0.04 nM), read-out: IC50 as measured, before reduction to the measurement limit) is 0.002 nM. The solubility in data set [2] came out at 70 ± 10 µM (≈ 38.8 µg/mL).

As for `O=C(NCCCCCCCCNC(=O)NCC12CC3CC(CC(F)(C3)C1)C2)NCC12CC3CC(CC(F)(C3)C1)C2` [Compound 11g], the melting point was 95 to 96 °C. At human sEH [1] (setting [4]), the IC50 was under 0.04 nM. Further, the solubility in data set [2] is 180 ± 20 µM (≈ 101 µg/mL).

The compound `O=C(NCCCCCCCCCCNC(=O)NCC12CC3CC(CC(Cl)(C3)C1)C2)NCC12CC3CC(CC(Cl)(C3)C1)C2` [Compound 12i] came in with a melting point of 189 to 190 °C. For the same compound, the IC50 at human sEH [1] (setting [4]) is under 0.04 nM. Besides, the solubility in data set [2] came to 60 ± 10 µM (≈ 37.4 µg/mL).

Regarding `O=C(NC12CC3CC(CC(Cl)(C3)C1)C2)N[C@H]1CC[C@H](Oc2ccc(C(=O)O)cc2)CC1` [Compound 1c], the IC50 on human sEH [3] (chlorine derivative of t-AUCB without methylene bridge) is 1.4 nM.

The compound `O=C(NCCCCNC(=O)NCC12CC3CC(CC(Cl)(C3)C1)C2)NCC12CC3CC(CC(Cl)(C3)C1)C2` [Compound 12c] showed a melting point of 213 to 214 °C. Moreover, on human sEH [1] (setting [4]), the IC50 is under 0.04 nM. The solubility in data set [2] was 60 ± 10 µM (≈ 32.4 µg/mL).

The compound `O=C(NCCCCCCNC(=O)NCC12CC3CC(CC(Cl)(C3)C1)C2)NCC12CC3CC(CC(Cl)(C3)C1)C2` [Compound 12e] had a melting point of 148 to 149 °C. Besides, the IC50 on human sEH [1] (setting [4]) was under 0.04 nM. Also, the solubility in data set [2] was 60 ± 10 µM (≈ 34.1 µg/mL).

With `O=C(NCCCNC(=O)NCC12CC3CC(CC(Cl)(C3)C1)C2)NCC12CC3CC(CC(Cl)(C3)C1)C2` [Compound 12b], the melting point fell in the range of 194 to 195 °C. In addition, the IC50 at human sEH [1] (setting [4]) was under 0.04 nM. In addition, the solubility in data set [2] is 80 ± 10 µM (≈ 42 µg/mL).

Take `O=C(NCCCCCCCCCCNC(=O)NCC12CC3CC(CC(F)(C3)C1)C2)NCC12CC3CC(CC(F)(C3)C1)C2` [Compound 11i]: the melting point lay within 76 to 77 °C. The IC50 at human sEH [1] (setting [4]) was found to be 0.05 nM. Also, the solubility in data set [2] came out at 150 ± 20 µM (≈ 88.6 µg/mL).

`O=C(NCCCCCCCCCNC(=O)NCC12CC3CC(CC(F)(C3)C1)C2)NCC12CC3CC(CC(F)(C3)C1)C2` [Compound 11h] showed a melting point of 73 to 74 °C. In addition, the 50% inhibitory concentration (IC50) at human sEH [1] (setting [4]) came out at 0.05 nM. Moreover, the solubility in data set [2] came out at 200 ± 20 µM (≈ 115 µg/mL).

For `O=C(NCCNC(=O)NCC12CC3CC(CC(Cl)(C3)C1)C2)NCC12CC3CC(CC(Cl)(C3)C1)C2` [Compound 12a], the melting point was in the range of 222 to 223 °C. Also, at human sEH [1] (setting [4]), the IC50 turned out to be 5.1 nM. In addition, the solubility in data set [2] was 60 ± 10 µM (≈ 30.7 µg/mL).

In turn, `O=C(NCCNC(=O)NCC12CC3CC(CC(F)(C3)C1)C2)NCC12CC3CC(CC(F)(C3)C1)C2` [Compound 11a] registered a melting point of 78 to 79 °C. For the same compound, the IC50 on human sEH [1] (setting [4]) came to 9.2 nM. Moreover, in data set [2], the solubility stood at 150 ± 20 µM (≈ 71.8 µg/mL).

`O=C(NCC12CC3CC(CC(Cl)(C3)C1)C2)N[C@H]1CC[C@H](Oc2ccc(C(=O)O)cc2)CC1` [Compound 10] showed a melting point of 192 to 193 °C. For the same compound, on human sEH [1] (setting [4]), the IC50 was under 0.04 nM. Besides, the solubility in data set [2] is 160 ± 20 µM (≈ 73.8 µg/mL).

Regarding `O=C(NCCCCCCCNC(=O)NCC12CC3CC(CC(Cl)(C3)C1)C2)NCC12CC3CC(CC(Cl)(C3)C1)C2` [Compound 12f], the melting point lay in the range of 164 to 165 °C. In addition, the IC50 at human sEH [1] (setting [4]) was under 0.04 nM. Further, in data set [2], the solubility is 80 ± 10 µM (≈ 46.5 µg/mL).

Compound `O=C(NCC12CC3CC(CC(F)(C3)C1)C2)N[C@H]1CC[C@H](Oc2ccc(C(=O)O)cc2)CC1` [Compound 9] came in with a melting point of 85 to 86 °C. Also, on human sEH [1] (setting [4]), the IC50 is 0.6 nM. Besides, the solubility in data set [2] came to 150 ± 20 µM (≈ 66.7 µg/mL).

With `O=C(NCCCCCCCNC(=O)NCC12CC3CC(CC(F)(C3)C1)C2)NCC12CC3CC(CC(F)(C3)C1)C2` [Compound 11f], the melting point was in the range of 77 to 78 °C. In addition, the IC50 on human sEH [1] (setting [4]) is under 0.04 nM. Moreover, the solubility in data set [2] came to 200 ± 20 µM (≈ 110 µg/mL).
